Results as given in BindingDB's records for doi:10.1021/jm050965z (Millennium Pharmaceuticals, 2006).

Experiment: Inhibition of I309-induced chemotaxis in L1.2 cells expressing CCR8

| Compound | IC50 |
| --- | --- |
| O=C(NC1CCN(Cc2cccc(Oc3ccccc3Cl)c2)CC1)C1(c2ccccc2)CCNC1 (racemic) [(+/-) 3-phenyl-pyrrolidine-3-carboxylic acid {1-[3-(2-chloro-phenoxy)-benzyl]-piperidin-4-yl}-amide] | 22 nM |
| CCN1CCC(C(=O)NC2CCN(Cc3cccc(Oc4ccccc4Cl)c3)CC2)(c2ccccc2)CC1 [1-ethyl-4-phenyl-piperidine-4-carboxylic acid {1-[3-(2-chloro-phenoxy)-benzyl]-piperidin-4-yl}-amide] | 43 nM |
| CCN1CCC(C(=O)NC2CCN(Cc3cccc(Oc4ccccc4OC)c3)CC2)(c2ccccc2)CC1 [1-ethyl-4-phenyl-piperidine-4-carboxylic acid {1-[3-(2-methoxy-phenoxy)-benzyl]-piperidin-4-yl}-amide] | 56 nM |
| CC(C)(C(=O)O)N1CCC(C(=O)NC2CCN(Cc3cccc(Oc4ccccc4Cl)c3)CC2)(c2ccccc2)C1 (configuration not stated) [2-(3-((1-(3-(2-chlorophenoxy)benzyl)piperidin-4-yl)carbamoyl)-3-phenylpyrrolidin-1-yl)-2-methylpropanoic acid] | 1 nM |
| CC(C)(C(=O)O)N1CCC(C(=O)NC2CCN(Cc3cccc(Oc4ccccc4Cl)c3)CC2)(c2ccccc2)CC1 [2-(4-{1-[3-(2-chloro-phenoxy)-benzyl]-piperidin-4-ylcarbamoyl}-4-phenyl-piperidin-1-yl)-2-methyl-propionic acid] | 4 nM |
| COc1ccccc1Oc1cccc(CN2CCC(NC(=O)C3(c4ccccc4)CCNCC3)CC2)c1 [4-phenyl-piperidine-4-carboxylic acid {1-[3-(2-methoxy-phenoxy)-benzyl]-piperidin-4-yl}-amide] | 11 nM |
| COc1ccccc1Oc1cccc(CN2CCC(NC(=O)Cc3ccccc3)CC2)c1 [N-{1-[3-(2-methoxy-phenoxy)-benzyl]-piperidin-4-yl}-2-phenyl-acetamide] | 55 nM |
